Assay results as given in patent publication US8993566B2, “Quinoline compound composing 1,2,4-triazine-dione and use thereof” (Wuhan Shengyun Biopharma Co., Ltd., priority 2012, dated 2015).
In brackets after ≈: the same amount, converted by molar mass.

Key:
[1] = system: human nonsmall-cell lung cancer cell H460; test: In vitro anti-tumor cell activity (MTT), H460; format: cell-based; conditions: H460 cells, MTT, 72 h, Bliss method; for IC50: Homo sapiens, NCI-H460, read-out: H460 IC50
Procedure: (§1) The digested cell solution was poured into a centrifuge tube, to which a culture media was added to stop the digestion. The centrifuge tube was centrifuged at 800 r/min for 10 min, the supernatant was removed gently and then 5 mL of the culture media was added. The cells were pipetted and mixed homogeneously. 10 μL cell suspension was taken into a cell counting plate for counting, wherein the cell concentration was adjusted to 10^4 cells/well. To each well of a 96-well plate, except for A1 well as blank control, was added 100 μL of the cell suspension. The 96-well plate was placed in an incubator and cultivated for 24 h. […] The 96-well plate was placed in an incubator and cultivated for 72 h. (3) The culture media containing the compounds in the 96-well plate was removed, and the cells were washed with phosphate buffered solution (PBS) twice. To each well was added 100 μL MTT (tetrazole) (0.5 mg/mL), after placing the plate in an incubator to incubate for 4 h, the MTT solution was removed and 100 μL dimethyl sulfoxide was added. The reaction product of survival cells with MTT, i.e. formazan, was dissolved completely by oscillation on a magnetic oscillator, and then placed into a microplate reader to measure the results, and the IC50 values of compounds could be deduced by Bliss method.

[2] = system: human colon cancer cell HT-29; test: In vitro anti-tumor cell activity (MTT), HT-29; format: cell-based; conditions: HT-29 cells, MTT, 72 h, Bliss method; for IC50: Homo sapiens, read-out: HT-29 IC50
Procedure: as §1

[3] = system: human gastric cancer cell MKN-45; test: In vitro anti-tumor cell activity (MTT), MKN-45; format: cell-based; conditions: MKN-45 cells, MTT, 72 h, Bliss method; for IC50: Homo sapiens, read-out: MKN-45 IC50
Procedure: as §1

[4] = system: human hepatoma carcinoma cell line SMMC-7721; test: In vitro anti-tumor cell activity (MTT), SMMC-7721; format: cell-based; conditions: SMMC-7721 cells, MTT, 72 h, Bliss method; for IC50: Homo sapiens, read-out: SMMC-7721 IC50
Procedure: as §1

[5] = target: T1, c-Met kinase (His-tagged recombinant human Met (amino acids 974-end)) (Homo sapiens, UniProt P08581); test: c-Met Enzyme Activity Inhibition Assay (ELISA); format: biochemical; conditions: 50 pM c-Met, 5 μM ATP, room temperature 20 min; for IC50: read-out: IC50 for inhibiting c-Met kinase (converted)
T1 construct: His-tagged recombinant human Met (amino acids 974-end); His
Procedure: c-Met Enzyme Activity Inhibition Assay
The assay for the determination of c-Met kinase activity is based on an enzyme linked immunosorbant assay (ELISA). A compound of Formula I, 50 pM c-Met (His-tagged recombinant human Met (amino acids 974-end), expressed by baculovirus), and 5 μM ATP in an assay buffer (25 mM MOPS, pH 7.4, 5 mM MgCl2, […], 100 μM sodium orthovanadate, 0.01% Triton X-100, 1 mM DTT, final DMSO concentration 1% (v/v)) were incubated on a plate coated with 0.25 mg/mL POT at room temperature for 20 min. The reaction mixture was removed by washing and the phosphorylated polymer substrate was detected with 0.2 μg/mL phosphotyrosine specific monoclonal antibody (PY20) conjugated to horseradish peroxidase (HRP). After the addition of 1M phosphoric acid to stop the development, the chromogenic substrate (TMB) color was quantitated by spectrophotometry at 450 nm.

T1 sequence (P08581 956-1390): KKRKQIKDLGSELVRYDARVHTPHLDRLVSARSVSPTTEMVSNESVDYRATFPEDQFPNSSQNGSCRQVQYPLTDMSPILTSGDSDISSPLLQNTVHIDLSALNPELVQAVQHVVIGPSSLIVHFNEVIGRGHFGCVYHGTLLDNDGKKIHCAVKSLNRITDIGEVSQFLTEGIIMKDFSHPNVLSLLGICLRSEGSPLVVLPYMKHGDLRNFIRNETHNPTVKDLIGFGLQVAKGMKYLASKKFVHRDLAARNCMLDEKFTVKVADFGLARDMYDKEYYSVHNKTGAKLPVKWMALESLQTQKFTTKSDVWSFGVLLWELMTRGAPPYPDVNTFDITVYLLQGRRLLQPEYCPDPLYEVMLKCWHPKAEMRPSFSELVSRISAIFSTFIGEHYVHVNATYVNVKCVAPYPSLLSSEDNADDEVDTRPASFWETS

Molecule: COc1cc2c(Oc3ccc(NC(=O)c4nn(-c5ccc(F)c(F)c5)c(=O)n(C)c4=O)cc3F)ccnc2cc1OCCCN1CCOCC1 [Example 18, N-[3-fluoro-4-[6-methoxy-7-[3-(4-morpholinyl)propyloxy]quinolin-9-oxy]phenyl]-2-(3,4-difluorophenyl)-4-methyl-3,5-dioxo-2,3,4,5-tetrahydro-1,2,4-triazine-6-carboxamide]
- H460 IC50 [1]: 0.57 µg/mL
- HT-29 IC50 [2]: 0.3 µg/mL
- MKN-45 IC50 [3]: 0.0008 µg/mL
- SMMC-7721 IC50 [4]: 0.45 µg/mL
- IC50 for inhibiting c-Met kinase [5]: 0.32 µg/mL

Molecule: COc1cc2c(Oc3ccc(NC(=O)c4nn(-c5ccc(F)c(F)c5)c(=O)n(C)c4=O)cc3F)ccnc2cc1OCCCN1CCC(C)CC1 [Example 19, N-[3-fluoro-4-[6-methoxy-7-[3-(4-methylpiperidin-1-yl)propyloxy]quinolin-4-oxy]phenyl]-2-(3,4-difluorophenyl)-4-methyl-3,5-dioxo-2,3,4,5-tetrahydro-1,2,4-triazine-6-carboxamide]
- IC50 [1]: 1.1 µg/mL (≈ 1.56 µM)
- IC50 [2]: 0.24 µg/mL (≈ 0.341 µM)
- IC50 [3]: 230 ng/mL (≈ 0.326 µM)
- IC50 [4]: 0.74 µg/mL (≈ 1.05 µM)
- IC50 [5]: 766 nM

Molecule: COc1cc2c(Oc3ccc(NC(=O)c4nn(-c5ccc(F)c(F)c5)c(=O)n(C)c4=O)cc3F)ccnc2cc1OCCCN1CCN(C)CC1 [Example 20, N-[3-fluoro-4-[6-methoxy-7-[3-(4-methyl-1-piperazinyl)propyloxy]quinolin-4-oxy]phenyl]-2-(3,4-difluorophenyl)-4-methyl-3,5-dioxo-2,3,4,5-tetrahydro-1,2,4-triazine-6-carboxamide]
- IC50 [1]: 0.28 µg/mL (≈ 0.397 µM)
- IC50 [2]: 0.14 µg/mL (≈ 0.198 µM)
- IC50 [3]: 9 ng/mL (≈ 0.0128 µM)
- IC50 [4]: 0.11 µg/mL (≈ 0.156 µM)
- IC50 [5]: 241 nM

Molecule: COc1cc2c(Oc3ccc(NC(=O)c4nn(-c5ccc(Cl)cc5)c(=O)n(C)c4=O)cc3F)ccnc2cc1OCCCN1CCCCC1 [Example 26, N-[3-fluoro-4-[6-methoxy-7-[3-(1-piperidinyl)propyloxy]quinolin-4-oxy]phenyl]-2-(4-chlorophenyl)-4-methyl-3,5-dioxa-2,3,4,5-tetrahydro-1,2,4-triazine-6-carboxamide;]
- H460 IC50 [1]: 0.15 µg/mL
- HT-29 IC50 [2]: 0.08 µg/mL
- MKN-45 IC50 [3]: 0.011 µg/mL
- SMMC-7721 IC50 [4]: 0.33 µg/mL
- IC50 for inhibiting c-Met kinase [5]: 0.71 µg/mL

Molecule: COc1cc2c(Oc3ccc(NC(=O)c4nn(-c5ccc(Cl)cc5)c(=O)n(C)c4=O)cc3F)ccnc2cc1OCCCN1CCOCC1 [Example 27, N-[3-fluoro-4-[6-methoxy-7-[3-(4-morpholinyl)propyloxy]quinolin-4-oxy]phenyl]-2-(4-chlorophenyl)-4-methyl-3,5-dioxo-2,3,4,5-tetrahydro-1,2,4-triazine-6-carboxamide]
- IC50 [1]: 0.23 µg/mL (≈ 0.333 µM)
- IC50 [2]: 0.18 µg/mL (≈ 0.26 µM)
- IC50 [3]: 5.3 ng/mL (≈ 0.00767 µM)
- IC50 [4]: 0.58 µg/mL (≈ 0.839 µM)
- IC50 [5]: 59.3 nM

Molecule: C=CCn1c(=O)c(C(=O)Nc2ccc(Oc3ccnc4cc(OCCCN5CCCC5)c(OC)cc34)c(F)c2)nn(-c2ccc(Cl)cc2)c1=O [Example 38]
- H460 IC50 [1]: 1.4 µg/mL
- HT-29 IC50 [2]: 0.54 µg/mL
- MKN-45 IC50 [3]: 0.62 µg/mL
- SMMC-7721 IC50 [4]: 1.8 µg/mL
- IC50 for inhibiting c-Met kinase [5]: 2.76 µg/mL

Molecule: C=CCn1c(=O)c(C(=O)Nc2ccc(Oc3ccnc4cc(OCCCN5CCOCC5)c(OC)cc34)c(F)c2)nn(-c2ccc(Br)cc2)c1=O [Example 39]
- H460 IC50 [1]: 1.4 µg/mL
- HT-29 IC50 [2]: 0.83 µg/mL
- MKN-45 IC50 [3]: 0.19 µg/mL
- SMMC-7721 IC50 [4]: 2.1 µg/mL
- IC50 for inhibiting c-Met kinase [5]: 1.8 µg/mL

Molecule: N-[3-fluoro-4-[6-methoxy-7-(3-(4-methyl-1-piperazinyl)propyloxy)quinolin-4-oxy]phenyl]-2-(3-trifluoromethylphenyl)-4-methyl-3,5-dicarbamoyl-2,3,4,5-tetrahydro-1,2,4-triazine-6-carboxamide [Example 25]
- H460 IC50 [1]: 0.52 µg/mL
- HT-29 IC50 [2]: 0.05 µg/mL
- MKN-45 IC50 [3]: 0.014 µg/mL
- SMMC-7721 IC50 [4]: 0.07 µg/mL
- IC50 for inhibiting c-Met kinase [5]: 1.01 µg/mL

Molecule: N-[3-fluoro-4-[6-methoxy-7-[3-(1-piperidinyl)propyloxy]quinolin-4-oxy]phenyl]-2-(3-trifluoromethylphenyl)-4-methyl-3,5-dicarbonyl-2,3,4,5-tetrahydro-1,2,4-triazine-6-carboxamide [Example 22]
- H460 IC50 [1]: 0.26 µg/mL
- HT-29 IC50 [2]: 0.12 µg/mL
- MKN-45 IC50 [3]: 0.006 µg/mL
- SMMC-7721 IC50 [4]: 0.18 µg/mL
- IC50 for inhibiting c-Met kinase [5]: 0.57 µg/mL

Molecule: N-[3-fluoro-4-[6-methoxy-7-[3-(1-piperidinyl)propyloxy]quinolin-4-oxy]phenyl]-2-phenyl-4-methyl-3,5-dioxo-2,3,4,5-tetrahydro-1,2,4-triazine-6-carboxamide [Example 2]
- H460 IC50 [1]: 0.072 µg/mL
- HT-29 IC50 [2]: 0.18 µg/mL
- MKN-45 IC50 [3]: 0.032 µg/mL
- SMMC-7721 IC50 [4]: 0.20 µg/mL
- IC50 for inhibiting c-Met kinase [5]: 0.12 µg/mL

Molecule: N-[3-fluoro-4-[6-methoxy-7-[3-(1-piperidinyl)propyloxy]quinolin]-4-oxy]phenyl]-2-(2,4-difluorophenyl)-4-benzyl-3,5-dicarbonyl-2,3,4,5-tetrahydro-1,2,4-triazine-6-carboxamide [Example 44]
- H460 IC50 [1]: 0.99 µg/mL
- HT-29 IC50 [2]: 0.57 µg/mL
- MKN-45 IC50 [3]: 0.13 µg/mL
- SMMC-7721 IC50 [4]: 2.5 µg/mL
- IC50 for inhibiting c-Met kinase [5]: 6.1 µg/mL

Molecule: N-[3-fluoro-4-[6-methoxy-7-[3-(1-piperidinyl)propyloxy]quinolin]-4-oxy]phenyl]-2-(2-fluorophenyl)-4-allyl-3,5-dicarbonyl-2,3,4,5-tetrahydro-1,2,4-triazine-6-carboxamide [Example 40]
- H460 IC50 [1]: 1.0 µg/mL
- HT-29 IC50 [2]: 0.26 µg/mL
- MKN-45 IC50 [3]: 0.05 µg/mL
- SMMC-7721 IC50 [4]: 3.1 µg/mL
- IC50 for inhibiting c-Met kinase [5]: 5.1 µg/mL

Molecule: N-[3-fluoro-4-[6-methoxy-7-[3-(1-pyrrolidyl)propyloxy]quinolin-4-oxy]phenyl]-2-(3-trifluoromethylphenyl)-4-methyl-3,5-dicarbonyl-2,3,4,5-tetrahydro-1,2,4-triazine-6-carboxamide [Example 21]
- H460 IC50 [1]: 0.24 µg/mL
- HT-29 IC50 [2]: 0.13 µg/mL
- MKN-45 IC50 [3]: 0.0002 µg/mL
- SMMC-7721 IC50 [4]: 0.32 µg/mL
- IC50 for inhibiting c-Met kinase [5]: 0.13 µg/mL

Molecule: N-[3-fluoro-4-[6-methoxy-7-[3-(1-pyrrolidyl)propyloxy]quinolin-4-oxy]phenyl]-2-(4-methoxyphenyl)-4-methyl-3,5-dicarbonyl-2,3,4,5-tetrahydro-1,2,4-triazine-6-carboxamide [Example 11]
- H460 IC50 [1]: 2.1 µg/mL
- HT-29 IC50 [2]: 1.4 µg/mL
- MKN-45 IC50 [3]: 3.3 µg/mL
- SMMC-7721 IC50 [4]: 2.5 µg/mL
- IC50 for inhibiting c-Met kinase [5]: 0.47 µg/mL

Molecule: N-[3-fluoro-4-[6-methoxy-7-[3-(1-pyrrolidyl)propyloxy]quinolin]-4-oxy]phenyl]-2-(4-fluorophenyl)-4-allyl-3,5-dicarbonyl-2,3,4,5-tetrahydro-1,2,4-triazine-6-carboxamide [Example 42]
- H460 IC50 [1]: 1.1 µg/mL
- HT-29 IC50 [2]: 0.77 µg/mL
- MKN-45 IC50 [3]: 0.11 µg/mL
- SMMC-7721 IC50 [4]: 0.92 µg/mL
- IC50 for inhibiting c-Met kinase [5]: 1.63 µg/mL

Molecule: N-[3-fluoro-4-[6-methoxy-7-[3-(4-methyl-1-piperazinyl)propyloxy]quinolin]-4-oxy]phenyl]-2-(2-fluorophenyl)-4-allyl-3,5-dicarbonyl-2,3,4,5-tetrahydro-1,2,4-triazine-6-carboxamide [Example 41]
- H460 IC50 [1]: 0.8 µg/mL
- HT-29 IC50 [2]: 1.1 µg/mL
- MKN-45 IC50 [3]: 0.06 µg/mL
- SMMC-7721 IC50 [4]: 1.4 µg/mL
- IC50 for inhibiting c-Met kinase [5]: 2.7 µg/mL
